The source made the active and inactive calls.
Key:
Assay type in all cases: functional, cell-based
MCF7 [1] = experiment: Cytotoxicity in human MCF7 cells assessed as reduction in cell viability up to 50 uM by MTT assay
Bel-7402 = experiment: Cytotoxicity in human Bel7402 cells assessed as reduction in cell viability up to 50 uM by MTT assay
A549 = experiment: Cytotoxicity in human A549 cells assessed as reduction in cell viability up to 50 uM by MTT assay
HeLa = experiment: Cytotoxicity in human HeLa cells assessed as reduction in cell viability up to 50 uM by MTT assay
MCF7 [2] = experiment: Inhibition of cell migration of human MCF7 cells up to 50 uM by wound healing assay

CCCCC[C@@H](CCCCCCCCCC(=O)O)O[C@@H]1O[C@H](C)[C@H](O)[C@H](O)[C@H]1O[C@@H]1O[C@H](CO)[C@@H](O)[C@H](O[C@@H]2O[C@H](CO[C@@H]3O[C@H](CO)[C@@H](O[C@@H]4O[C@H](CO)[C@@H](O)[C@H](O)[C@H]4O)[C@H](O)[C@H]3O)[C@@H](O)[C@H](O)[C@H]2O)[C@H]1O[C@@H]1O[C@@H](C)[C@H](O)[C@@H](O)[C@H]1O
inactive: Activity (MCF7 [1]) | Activity (Bel-7402) | Activity (A549) | Activity (HeLa) | inhibition (MCF7 [2])

CCCCCC[C@@H](CCCCCCCCCC(=O)O)O[C@@H]1O[C@H](C)[C@H](O)[C@H](O)[C@H]1O[C@@H]1O[C@H](CO)[C@@H](O)[C@H](O[C@@H]2O[C@H](CO[C@@H]3O[C@H](CO)[C@@H](O[C@@H]4O[C@H](CO[C@@H]5O[C@H](C)[C@H](O)[C@H](O)[C@H]5O)[C@@H](O)[C@H](O)[C@H]4O)[C@H](O)[C@H]3O)[C@@H](O)[C@H](O)[C@H]2O)[C@H]1O[C@@H]1O[C@@H](C)[C@H](O)[C@@H](O)[C@H]1O
inactive: Activity (MCF7 [1]) | Activity (Bel-7402) | Activity (A549) | Activity (HeLa) | inhibition (MCF7 [2])

CCCCCC[C@@H](CCCCCCCCCC(=O)O)O[C@@H]1O[C@H](C)[C@H](O)[C@H](O)[C@H]1O[C@@H]1O[C@H](CO)[C@@H](O)[C@H](O[C@@H]2O[C@H](CO[C@@H]3O[C@H](CO)[C@@H](O[C@@H]4O[C@H](CO)[C@@H](O)[C@H](O)[C@H]4O)[C@H](O)[C@H]3O)[C@@H](O)[C@H](O)[C@H]2O)[C@H]1O[C@@H]1O[C@@H](C)[C@H](O)[C@@H](O)[C@H]1O
inactive: Activity (MCF7 [1]) | Activity (Bel-7402) | Activity (A549) | Activity (HeLa) | inhibition (MCF7 [2])

CCCCCC[C@@H](CCCCCCCCCC(=O)O)O[C@@H]1O[C@H](C)[C@H](O)[C@H](O)[C@H]1O[C@@H]1O[C@H](CO)[C@@H](O)[C@H](O[C@@H]2O[C@H](CO)[C@@H](O[C@@H]3O[C@H](CO[C@@H]4O[C@H](C)[C@H](O)[C@H](O)[C@H]4O)[C@@H](O)[C@H](O)[C@H]3O)[C@H](O)[C@H]2O)[C@H]1O[C@@H]1O[C@@H](C)[C@H](O)[C@@H](O)[C@H]1O
inactive: Activity (MCF7 [1]) | Activity (Bel-7402) | Activity (A549) | Activity (HeLa) | inhibition (MCF7 [2])

CCCCC[C@@H](CCCCCCCCCC(=O)O)O[C@@H]1O[C@H](C)[C@H](O)[C@H](O)[C@H]1O[C@@H]1O[C@H](CO)[C@@H](O)[C@H](O[C@@H]2O[C@H](CO)[C@@H](O[C@@H]3O[C@H](CO[C@@H]4O[C@H](C)[C@H](O)[C@H](O)[C@H]4O)[C@@H](O)[C@H](O)[C@H]3O)[C@H](O)[C@H]2O)[C@H]1O[C@@H]1O[C@@H](C)[C@H](O)[C@@H](O)[C@H]1O
inactive: Activity (MCF7 [1]) | Activity (Bel-7402) | Activity (A549) | Activity (HeLa) | inhibition (MCF7 [2])

CCCCC[C@@H](CCCCCCCCCC(=O)O)O[C@@H]1O[C@H](C)[C@H](O)[C@H](O)[C@H]1O[C@@H]1O[C@H](CO)[C@@H](O)[C@H](O[C@@H]2O[C@H](CO[C@@H]3O[C@H](CO)[C@@H](O[C@@H]4O[C@H](CO[C@@H]5O[C@H](C)[C@H](O)[C@H](O)[C@H]5O)[C@@H](O)[C@H](O)[C@H]4O)[C@H](O)[C@H]3O)[C@@H](O)[C@H](O)[C@H]2O)[C@H]1O[C@@H]1O[C@@H](C)[C@H](O)[C@@H](O)[C@H]1O
inactive: Activity (MCF7 [1]) | Activity (Bel-7402) | Activity (A549) | Activity (HeLa) | inhibition (MCF7 [2])
